Measured values reported in publication PMC6006850, “Assessment of new HDAC inhibitors for immunotherapy of malignant pleural mesothelioma” (Clinical Epigenetics, 2018).
Like-named read-outs stand apart in the source and are kept apart here.

How the values were obtained:
[1] = cited from earlier work
lymphocytes = test: Cell viability (CellTiter-Glo) of lymphocytes treated with HDACi, with or without decitabine; design: hematological toxicity: dose or concentration left out as unconfirmed; AUC (Area Under the Curve) Lymphocytes - 5-aza: unit not given beside the values; details: for AUC (Area Under the Curve) Lymphocytes + 5-aza 500nM / AUC (Area Under the Curve) Lymphocytes - 5-aza: viability dose-response curve; for AUC (Area Under the Curve) Lymphocytes + 5-aza 500nM: decitabine 500 nM pretreatment; for AUC (Area Under the Curve) Lymphocytes - 5-aza: no decitabine
CD8 T-cell clones = test: Cell viability (CellTiter-Glo) of CD8 T-cell clones treated with HDACi, with or without decitabine; type: cell-based, human; design: AUC (Area Under the Curve) T-CD8 clones - 5-aza: unit not given beside the values; details: for AUC (Area Under the Curve) T-CD8 clones + 5-aza 500nM / AUC (Area Under the Curve) T-CD8 clones - 5-aza: viability dose-response curve; for AUC (Area Under the Curve) T-CD8 clones + 5-aza 500nM: decitabine 500 nM pretreatment; for AUC (Area Under the Curve) T-CD8 clones - 5-aza: no decitabine; for IC50: Homo sapiens, T-cell
PD-L1 (B7-H1) mRNA = test: PD-L1 mRNA expression in MPM cells by real time PCR; details: for PD-L1 mRNA: HDACi 48 h combined with decitabine 500 nM (72 h pretreatment); for PD-L1 expression: two additional MPM cell lines (Meso34 and Meso45), molecule alone
Experimental: (§4) All real-time PCR reactions were performed using the Mx3005P QPCR Systems (Stratagen Products, Agilent Technologies), and the amplifications were done using the SYBR Green PCR Master Mix SAB bioscience (Qiagen) mixed with Oligonucleotides QuantiTect Primer (Qiagen). The thermal cycling conditions were composed of 1 cycle at 95 °C for 10 min, 40 cycles at 95 °C for 30 s and 60 °C for 1 min, and 1 cycle at 95 °C for 1 min, 60 °C for 30 s, and 95 °C for 30 s. The experiments were carried out in duplicate for each data point. All the qPCR data were analyzed by MxPro software.

[2] = test system: natural killer cells (NK) (CD56+, CD16+); test: Flow cytometry of natural killer cell proportion in treated lymphocytes; type: cell-based, human
Experimental: (§1) For flow cytometry experiments, lymphocytes were seeded at 4 × 10^5cells/well in a flat-bottomed 96-well plate in 180 μl RPMI 1640 8% HS. […]
(§2) The day of analysis, cells were stained in a conical-bottomed 96-well plate at 10^5 cells/well. The plate was centrifuged at 800×g for 1 min, and the pellets were washed using 200 μl/well of PBS containing BSA 0.1% (wash buffer). Antibodies (see Additional file 2: Table S2) were used at a dilution of 1/30 in the wash buffer, and then, the plate was incubated at 4 °C for 30 min. Later, two washings were performed using the wash buffer prior to flow cytometry analysis. All flow cytometry data were acquired with FACScalibur (BD biosciences) using the CellQuest software (BD Biosciences) and analyzed by FlowJo software.
(§3) The aim of our strategy is to induce an anti-tumor immune response to cure malignant pleural mesothelioma by using combinations of epigenetic drugs including HDACi. Therefore, it was necessary to study the effect of these HDACi on sub-populations of lymphocytes implicated in this immune response. […] Toxicity of the compounds was tested on natural killer cells (NK) (CD56+, CD16+), on regulatory T-cells (Treg) (CD4+, CD25+, CD127 low and Foxp3+), on CD4 and CD8 naïve T-cells (CD4+, CCR7+ and CD45RA+, and CD8+, CCR7+ and CD45RA+, respectively), and on CD4 and CD8 memory T cells (CD4+ and CD45RO+, and CD8+ and CD45RO+, respectively).

[3] = test system: regulatory T-cells (Treg) (CD4+, CD25+, CD127 low and Foxp3+); test: Flow cytometry of regulatory T cell proportion in treated lymphocytes; type: cell-based, human; details: decitabine alone 500 nM, 72 h
Experimental: as §1, §2, §3

RIG-1 mRNA = RIG-1 mRNA expression in MPM cells by real time PCR; details: decitabine alone
Experimental: as §4

MDA5 mRNA = MDA5 mRNA expression in MPM cells by real time PCR; details: decitabine alone
Experimental: as §4

## O=C(CCCCCCC(=O)Nc1ccccc1)NO [SAHA, Suberoylanilide hydroxamic acid]
[1]
  clinical doses measured in blood from patients: 1 to 4 µM
[1]; patients, clinical trials
  blood concentrations reach in clinic: approximately 1 μM
lymphocytes; at clinical doses measured in blood from patients (approximately 1 to 4 μM)
  toxicity for lymphocytes and CD8 T-cells: toxic
lymphocytes; lymphocytes, highest dose of compound, in the presence or not of decitabine
  cells survived: approximately 40%
lymphocytes
  AUC (Area Under the Curve) Lymphocytes + 5-aza 500nM: 183.9
  AUC (Area Under the Curve) Lymphocytes - 5-aza: 200.5
CD8 T-cell clones
  AUC (Area Under the Curve) T-CD8 clones + 5-aza 500nM: 35.07
  AUC (Area Under the Curve) T-CD8 clones - 5-aza: 112.2
PD-L1 (B7-H1) mRNA; Meso96
  PD-L1 mRNA: significant increase
PD-L1 (B7-H1) mRNA
  PD-L1 expression: increased

## CCCC(CCC)C(=O)O [VPA, valproic acid]
[1]; patients, clinical trials
  blood concentrations observed during treatments: approximately 1 mM
lymphocytes; (blood concentration observed during treatments)
  hematological toxicity: weak hematological toxicity
lymphocytes
  AUC (Area Under the Curve) Lymphocytes + 5-aza 500nM: 208.5
  AUC (Area Under the Curve) Lymphocytes - 5-aza: 248.3
[2]; in comparison to untreated lymphocytes, 48 h, VPA 5 mM, SAHA 1 μM, ODB 32 μM, NODB 8 μM, ODH 4 μM, NODH 50 nM
  decrease of the proportion of NK cells: more than 50%
CD8 T-cell clones; read-out: IC50 T-CD8 clones + Decitabine 500 nM, decitabine 500 nM 72 h pretreatment, then 48 h HDACi
  IC50: 0.02 mM
CD8 T-cell clones; 48 h HDACi, no decitabine pretreatment, read-out: IC50 T-CD8 clones − Decitabine
  IC50: 3.8 ± 0.06 mM
CD8 T-cell clones
  AUC (Area Under the Curve) T-CD8 clones + 5-aza 500nM: 60.52
  AUC (Area Under the Curve) T-CD8 clones - 5-aza: 216.8
PD-L1 (B7-H1) mRNA; Meso96
  PD-L1 mRNA: significant increase
PD-L1 (B7-H1) mRNA
  PD-L1 expression: increased

## Nc1ncn([C@H]2C[C@H](O)[C@@H](CO)O2)c(=O)n1 [decitabine, 5-Aza-2′-deoxycytidine]
[3]
  effect on Treg proportion: reduced moderately
RIG-1 mRNA; Meso34
  RIG-1 mRNA expression: increased significantly
RIG-1 mRNA; Meso45
  RIG-1 mRNA expression: increased significantly
RIG-1 mRNA; Meso96
  RIG-1 mRNA expression: not
MDA5 mRNA; Meso34
  MDA5 mRNA expression: increased significantly
MDA5 mRNA; Meso45
  MDA5 mRNA expression: increased significantly
MDA5 mRNA; Meso96
  MDA5 mRNA expression: not
[2]; decitabine alone 500 nM, 72 h
  effect on NK proportion: reduced moderately
PD-L1 (B7-H1) mRNA; Meso96, decitabine alone 500 nM
  mRNA expression of PD-L1: did not affect
PD-L1 (B7-H1) mRNA
  PD-L1 expression: increased
